Results published in ChEMBL document CHEMBL1201862, “PubChem BioAssay data set” (2004).
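The compound was tested at five concentrations on cells cultured in 96-well plates, with a 48-hour exposure period. GI50: concentration for 50% inhibition of growth.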 The source made the active and inactive calls. No stated cut-off is given here; in the data, active = GI50 up to about 1.1 µM and inactive = higher.

Key:
Experiment in all cases: NCI anticancer screen, dose series, 48 h
NCI-H522 = test system: NCI-H522
CCRF-CEM = test system: CCRF-CEM
KM12 = test system: KM12
HT-29 = test system: HT-29
CAKI-1 = test system: CAKI-1
SF-539 = test system: SF-539
UO-31 = test system: UO-31
UACC-257 = test system: UACC-257
NCI-H460 = test system: NCI-H460
M14 = test system: M14
RPMI-8226 = test system: RPMI-8226
MOLT-4 = test system: MOLT-4
IGROV-1 = test system: IGROV-1
A498 = test system: A498
COLO 205 = test system: COLO 205
HCC 2998 = test system: HCC 2998
ACHN = test system: ACHN
RXF 393 = test system: RXF 393
OVCAR-4 = test system: OVCAR-4
NCI/ADR-RES = test system: NCI/ADR-RES

Row | SMILES | GI50 (NCI-H522) | GI50 (CCRF-CEM) | GI50 (KM12) | GI50 (HT-29) | GI50 (CAKI-1) | GI50 (SF-539) | GI50 (UO-31) | GI50 (UACC-257) | GI50 (NCI-H460) | GI50 (M14) | GI50 (RPMI-8226) | GI50 (MOLT-4) | GI50 (IGROV-1) | GI50 (A498) | GI50 (COLO 205) | GI50 (HCC 2998) | GI50 (ACHN) | GI50 (RXF 393) | GI50 (OVCAR-4) | GI50 (NCI/ADR-RES)
1 | C=C1C(=O)C23C(O)C1CCC2C12CO[C@]3(O)[C@@H](O)C1C(C)(C)CCC2O (stereo partly drawn) | 0.798 µM (active) | 1.63 µM (inactive) | 16.1 µM (inactive) | 13.5 µM (inactive) | 15.2 µM (inactive) | 14.7 µM (inactive) | 17.1 µM (inactive) | 11.6 µM (inactive) | 11.2 µM (inactive) | 11.6 µM (inactive) | 3.75 µM (inactive) | 3.87 µM (inactive) | 15.1 µM (inactive) | 21.2 µM (inactive) | 2.89 µM (inactive) | 16.1 µM (inactive) | 14.1 µM (inactive) | 7.93 µM (inactive) | – | –
2 | COC(=O)c1cc(Cl)ccc1NC(=O)c1ccc([N+](=O)[O-])cc1 | – | 22.8 µM (inactive) | 19.8 µM (inactive) | 14.8 µM (inactive) | 15.3 µM (inactive) | 20.4 µM (inactive) | 17.2 µM (inactive) | 39.2 µM (inactive) | 42.3 µM (inactive) | 29 µM (inactive) | 20.2 µM (inactive) | 35.6 µM (inactive) | 19.8 µM (inactive) | 17.5 µM (inactive) | – | 29.2 µM (inactive) | 5.97 µM (inactive) | 21.4 µM (inactive) | 3.33 µM (inactive) | –
3 | O=C(CCc1nnc2s/c(=C\c3ccc4c(c3)OCO4)c(=O)n12)Nc1cc(Cl)ccc1Cl | > 100 µM (inactive) | > 100 µM (inactive) | > 100 µM (inactive) | > 100 µM (inactive) | > 100 µM (inactive) | > 100 µM (inactive) | > 100 µM (inactive) | > 100 µM (inactive) | > 100 µM (inactive) | > 100 µM (inactive) | > 78.5 µM (inactive) | > 100 µM (inactive) | > 100 µM (inactive) | > 100 µM (inactive) | > 74.1 µM (inactive) | > 100 µM (inactive) | > 100 µM (inactive) | > 100 µM (inactive) | > 100 µM (inactive) | –
4 | CN1N=CSC12C(=O)N(c1ccc(Cl)cc1)C(=O)N2c1ccc(Cl)cc1 (stereo not drawn) | 2.05 µM (inactive) | 3.37 µM (inactive) | 3.58 µM (inactive) | 3.4 µM (inactive) | 3.92 µM (inactive) | 5.82 µM (inactive) | 2.85 µM (inactive) | 3.15 µM (inactive) | 3.27 µM (inactive) | 5.42 µM (inactive) | 2.6 µM (inactive) | 2.67 µM (inactive) | 5.05 µM (inactive) | 3.1 µM (inactive) | 1.93 µM (inactive) | 3.33 µM (inactive) | 2.77 µM (inactive) | 5.33 µM (inactive) | 5.24 µM (inactive) | –
5 | CCCC(=O)NC1=C(NCC)C(=O)c2ccccc2C1=O | 25.9 µM (inactive) | > 100 µM (inactive) | 52.4 µM (inactive) | 44.1 µM (inactive) | – | > 100 µM (inactive) | – | 39.4 µM (inactive) | > 100 µM (inactive) | > 10 µM (inactive) | > 100 µM (inactive) | 73.3 µM (inactive) | > 100 µM (inactive) | – | 36.6 µM (inactive) | 86.3 µM (inactive) | > 100 µM (inactive) | 48.3 µM (inactive) | > 100 µM (inactive) | > 10 µM (inactive)
6 | NC1=Nc2ccccc2Sc2ccccc21 | 60.3 µM (inactive) | > 100 µM (inactive) | > 100 µM (inactive) | > 100 µM (inactive) | > 100 µM (inactive) | 58.5 µM (inactive) | 34.4 µM (inactive) | > 100 µM (inactive) | > 100 µM (inactive) | > 100 µM (inactive) | 77.4 µM (inactive) | > 100 µM (inactive) | > 100 µM (inactive) | 84.9 µM (inactive) | > 100 µM (inactive) | > 100 µM (inactive) | > 100 µM (inactive) | 95.7 µM (inactive) | > 100 µM (inactive) | –
7 | CC(=O)Nc1c(C)ccc2c1C(=O)c1ccccc1C2=O | > 100 µM (inactive) | 80.4 µM (inactive) | > 100 µM (inactive) | > 100 µM (inactive) | 56.5 µM (inactive) | > 100 µM (inactive) | 77.1 µM (inactive) | > 100 µM (inactive) | > 100 µM (inactive) | > 100 µM (inactive) | 65.8 µM (inactive) | > 100 µM (inactive) | > 100 µM (inactive) | > 100 µM (inactive) | > 100 µM (inactive) | > 100 µM (inactive) | > 100 µM (inactive) | > 100 µM (inactive) | > 100 µM (inactive) | –
8 | O=C1NC(Nc2ccccc2)=NC(C(F)(F)F)(C(F)(F)F)N1 | – | 48.6 µM (inactive) | 41.6 µM (inactive) | 56.2 µM (inactive) | – | 74.5 µM (inactive) | 30.8 µM (inactive) | 59.7 µM (inactive) | 32.8 µM (inactive) | 21.4 µM (inactive) | 34.1 µM (inactive) | 54.5 µM (inactive) | 54 µM (inactive) | – | 33.4 µM (inactive) | 46.7 µM (inactive) | 35.1 µM (inactive) | – | 39.6 µM (inactive) | 71.1 µM (inactive)
9 | CNC(=O)NCCCCC(NC(=O)OCc1ccccc1)C(=O)OCc1ccccc1 (stereo not drawn) | 14.5 µM (inactive) | 17.9 µM (inactive) | 29.9 µM (inactive) | 71.4 µM (inactive) | 23.7 µM (inactive) | 19 µM (inactive) | 18.2 µM (inactive) | 18.6 µM (inactive) | 31.7 µM (inactive) | 16.5 µM (inactive) | 24.2 µM (inactive) | 20.8 µM (inactive) | 28.1 µM (inactive) | > 100 µM (inactive) | 17.7 µM (inactive) | 20.3 µM (inactive) | 19.1 µM (inactive) | 16.4 µM (inactive) | 22.3 µM (inactive) | –
10 | CCOc1ccc(NC(=O)C(=O)C(C(=O)c2ccc3ccccc3c2)C2OC(=O)c3ccccc32)cc1 (stereo not drawn) | 11.8 µM (inactive) | 7.08 µM (inactive) | 32.7 µM (inactive) | 34.4 µM (inactive) | 23.8 µM (inactive) | 7.31 µM (inactive) | 15.7 µM (inactive) | 17 µM (inactive) | 5.09 µM (inactive) | 18.5 µM (inactive) | 4.8 µM (inactive) | 4.57 µM (inactive) | 17.6 µM (inactive) | 15.1 µM (inactive) | 19.1 µM (inactive) | 11.2 µM (inactive) | 33.4 µM (inactive) | – | 12.5 µM (inactive) | –
11 | COc1cccc2c1[C@]1(O)C(O)CCCC21 (stereo partly drawn) | > 100 µM (inactive) | > 100 µM (inactive) | > 100 µM (inactive) | > 100 µM (inactive) | > 100 µM (inactive) | > 100 µM (inactive) | > 100 µM (inactive) | > 100 µM (inactive) | > 100 µM (inactive) | > 100 µM (inactive) | > 100 µM (inactive) | > 100 µM (inactive) | > 100 µM (inactive) | > 100 µM (inactive) | > 100 µM (inactive) | > 100 µM (inactive) | > 100 µM (inactive) | > 100 µM (inactive) | > 100 µM (inactive) | –
12 | Cn1cc2ccccc2c1-c1nc(N)nc(F)n1 | > 100 µM (inactive) | > 100 µM (inactive) | > 100 µM (inactive) | > 100 µM (inactive) | > 100 µM (inactive) | > 100 µM (inactive) | 67.9 µM (inactive) | > 100 µM (inactive) | > 100 µM (inactive) | > 100 µM (inactive) | > 100 µM (inactive) | > 100 µM (inactive) | > 100 µM (inactive) | 15.6 µM (inactive) | > 100 µM (inactive) | > 100 µM (inactive) | > 100 µM (inactive) | 82.8 µM (inactive) | > 100 µM (inactive) | –
13 | S=C1NC(c2ccccc2)=NC(Cc2ccccc2)(c2ccccc2)N1c1ccccc1 (stereo not drawn) | – | > 100 µM (inactive) | > 100 µM (inactive) | > 100 µM (inactive) | > 100 µM (inactive) | > 100 µM (inactive) | > 100 µM (inactive) | > 100 µM (inactive) | > 100 µM (inactive) | > 100 µM (inactive) | > 100 µM (inactive) | > 100 µM (inactive) | > 100 µM (inactive) | > 100 µM (inactive) | > 100 µM (inactive) | > 100 µM (inactive) | 97.1 µM (inactive) | 68.2 µM (inactive) | 42.1 µM (inactive) | –
14 | CC/C(=N/O)C(C)C(=O)CCC(=O)Nc1ccc(Cl)cc1 (stereo not drawn) | – | > 100 µM (inactive) | > 100 µM (inactive) | > 100 µM (inactive) | > 100 µM (inactive) | > 100 µM (inactive) | > 100 µM (inactive) | > 100 µM (inactive) | > 100 µM (inactive) | > 100 µM (inactive) | > 100 µM (inactive) | > 100 µM (inactive) | > 100 µM (inactive) | > 100 µM (inactive) | > 100 µM (inactive) | > 100 µM (inactive) | 68.4 µM (inactive) | > 100 µM (inactive) | > 100 µM (inactive) | –
15 | O=C1N(Cl)C(=O)C(c2ccc(Cl)cc2)(c2ccc(Cl)cc2)N1Cl | 64.4 µM (inactive) | 22.6 µM (inactive) | 48.8 µM (inactive) | 78.9 µM (inactive) | > 100 µM (inactive) | > 100 µM (inactive) | 92.5 µM (inactive) | – | 52.2 µM (inactive) | 34.4 µM (inactive) | 41.2 µM (inactive) | 56.8 µM (inactive) | > 100 µM (inactive) | > 100 µM (inactive) | 41.8 µM (inactive) | > 100 µM (inactive) | 55.8 µM (inactive) | 22.6 µM (inactive) | > 100 µM (inactive) | –
